Among the data in patent US12459951B2, “Compounds that interact with RAS superfamily proteins for treatment of cancers, inflammatory diseases, rasopathies, and fibrotic disease” (SHY Therapeutics, LLC, priority 2022, dated 2025) are IC50 and solubility values, retold here.

One data set relates to A375 (wild type Kras). Kind of data set: Proliferation Assay (Cell Viability Assay). Format: cell-based. The conditions noted are these: Homo sapiens, A-375; Proliferation assay, A375; read-out: A375 IC50 (nM) Melanoma. As to the method: (§1) Cell lines: these Human tumor-derived cell lines were purchased from American Type Culture Collection. Human tumor-derived pancreatic cancer cell line MiaPaca-2 (expressing KRAS G12C mutant) and Panc-1 (expressing KRas G12D mutant), and Human non-small cell lung cancer (NSCLC) cell line A549 (expressing KRas G12S mutant), and Human melanoma cell line A375 (wild type Kras) were grown in complete DMEM-High Glucose medium. Human tumor-derived pancreatic cancer cell lines SU86.86 (expressing KRas G12D mutant), BxPC3 (expressing wild type K-Ras), and Human non-small cell lung cancer (NSCLC) cell lines NCI-H441 (expressing KRas G12S mutant), NCI-H1975 (expressing wild type KRas), NCI-H358 (expressing KRas G12C mutant), NCI-H1299 (expressing NRas Q61H mutant), and Human colon cancer cell line SW-620 (expressing KRas G12V mutant), Human triple negative breast cancer cell line HCC-1806 (expressing wild type KRas), and Human tumor-derived multiple myeloma cell line MM.1R (expressing wild type KRAS), were grown in RPMI 1640 medium. Human tumor-derived breast cancer cell line BT-549 (expressing wild type KRAS) was grown in RPMI 1640 medium in the presence of 11.8U insulin. Human tumor-derived pancreatic cancer cell line HPAF-II (expressing KRas G12D mutant), Human triple negative breast cancer cell line BT-20 (expressing wild type KRas), and Human colon cancer cell line LS123 (expressing KRas G12S mutant), were grown in EMEM medium. Human tumor-derived pancreatic cancer cell line CF-PAC1 (expressing KRas G12V mutant) was frown in IMDM medium, and Human colon cancer cell line HT29 (expressing wild type KRas) was grown in McCoy's 5A medium. The colon cancer cell line GP2d (expressing KRas G12D mutant) was purchased from MilliporeSigma and grown in DMEM-High Glucose medium. All cell lines were supplemented with penicillin (100 U/mL), streptomycin (100 μg/mL), and 10% heat-inactivated FBS at 37° C. in a humidified incubator with 5% CO2.
(§2) Method: Cells were plated at 2000 to 5000 cells/well density in 96-wells plate and cultured overnight. Small molecules that were tested were added to the cells in the final concentration of 10 μM in the presence of 0.3% DMSO and 10% FBS, and incubated for 2-4 days at 37° C. in a humidified incubator with 5% CO2. For IC50 value determination, serial dilutions of compounds were added to cells under the same conditions.
(§3) Assay: At the end of the incubation period, cell viability was determined using the CellTiter 96® Aqueous One Solution Cell Proliferation Assay according to manufacturer specifications (Promega, Madison, WI). The percentage of small molecules inhibition of cellular proliferation was calculated from raw data.

The test system of data set [1] is BT-549 (expressing wild type KRAS). Kind of data set: Proliferation Assay (Cell Viability Assay). Format: cell-based. The note with it: Homo sapiens, BT-549; Proliferation assay, BT549; read-out: BT549 IC50 (nM) TNBC. As to the method: as §1, §2, §3
The subject of data set [2] is GP2d (expressing KRas G12D mutant). Kind of data set: Proliferation Assay (Cell Viability Assay). It is filed as cell-based. The note with it: Homo sapiens, Proliferation assay, read-out: GP2d IC50 (nM) Colorectal. On the procedure: as §1, §2, §3
The subject of data set [3] is MM.1R (expressing wild type KRAS). Kind of data set: Proliferation Assay (Cell Viability Assay). Format: cell-based. The conditions noted are these: Homo sapiens, read-out: MM.1R IC50 (nM) Multiple Myloma. As to the method: as §1, §2, §3
In data set [4] the test system is NCI-H358 (expressing KRas G12C mutant). Kind of data set: Proliferation Assay (Cell Viability Assay). Format: cell-based. The note with it: Homo sapiens; Proliferation assay, NCI-H358; read-out: NCI-H358 IC50 (nM) NSCLC. On the procedure:
as §1, §2, §3

Data set [5] can be described thus: Kinetic Solubility Assay in pH 7.4 Buffer + 2% DMSO. It is filed as physicochemical. The conditions noted are these: phosphate-buffered saline pH 7.4 with 2% DMSO, aqueous buffer, kinetic from dmso stock, 25° C., two hours. As to the method:
Biological Example 9: Kinetic Solubility
Kinetic solubility assay in pH 7.4 Buffer+2% DMSO (“Kinetic Solubility Assay) was performed according to the following protocol: Briefly, using a 20 mM stock solution of the tested compounds in 100% DMSO, dilutions were prepared to a theoretical concentration of 400 μM in duplicates in phosphate-buffered saline pH 7.4 (138 mM NaCl, 2.7 mM KCl, 10 mM K-phosphate) with 2% final DMSO. The tested compounds dilutions in PBS were further allowed to equilibrate at 25° C. on a thermostatic shaker for two hours and then filtered through HTS filter plates using a vacuum manifold. The filtrates of the test compounds were diluted 2-fold with acetonitrile with 2% DMSO before measuring.
In parallel, using a 20 mM stock solution of the tested compounds in 100% DMSO, dilutions were prepared to theoretical concentrations of 0 μM (blank), 10 μM, 25 μM, 50 μM, 100 μM, and 200 μM in 50% acetonitrile/PBS with 2% final DMSO to generate calibration curves. Ondansetron was used as a reference compound to control proper assay performance. 200 μL of each sample was transferred to a 96-well plate and measured in the 230-550 nm range with a 5 nm step.
The concentrations of compounds in PBS filtrate are calculated using a dedicated Microsoft Excel calculation script. Proper absorbance wavelengths for calculations are selected for each compound manually based on absorbance maximums (absolute absorbance unit values for the minimum and maximum concentration points within the 0-3 OD range). Each final dataset is visually evaluated by the operator, and goodness of fit (R2) is calculated for each calibration curve. The effective range of this assay is approximately 2-400 μM and the compounds returning values close to the upper limit of the range may have higher actual solubility (e.g., 5′-deoxy-5-fluorouridine).
Table 8 show kinetic solubility data for selected compounds tested in the Kinetic Solubility assay described above.

Turning to `Cc1c(-c2ccn(C)n2)cn2nc(-c3nccn3C)nc(Nc3cc4c(cn3)CCO4)c12` [Compound 221, N-(5-Methyl-2-(1-methyl-1H-imidazol-2-yl)-6-(1-methyl-1H-pyrazol-3-yl)pyrrolo[2,1-f][1,2,4]triazin-4-yl)-2,3-dihydrofuro[3,2-c]pyridin-6-amine], the IC50 with A375 (wild type Kras) was more than 50 nM; in data set [1], more than 50 nM; in data set [2], more than 50 nM; in data set [3] it was less than 1 nM; in data set [4], 10 to 50 nM. For the same compound, in data set [5], the solubility at 2 h was 10 to 30 µM.

Turning to `Cc1c(-c2ccn(C)n2)cn2nc(-c3nccn3C)nc(Nc3ccc(N(C)C)cn3)c12` [Compound 227, N5,N5-Dimethyl-N2-(5-methyl-2-(1-methyl-1H-imidazol-2-yl)-6-(1-methyl-1H-pyrazol-3-yl)pyrrolo[2,1-f][1,2,4]triazin-4-yl)pyridine-2,5-diamine], the solubility at 2 h in data set [5] is less than 10 µM.

As for `COc1cc(Nc2nc(-c3nccn3C)nn3cc(-c4ccn(C)n4)c(C)c23)ncc1C` [Compound 235, N-(4-Methoxy-5-methylpyridin-2-yl)-5-methyl-2-(1-methyl-1H-imidazol-2-yl)-6-(1-methyl-1H-pyrazol-3-yl)pyrrolo[2,1-f][1,2,4]triazin-4-amine], the IC50 is more than 50 nM with A375 (wild type Kras); 10 to 50 nM in data set [1]; more than 50 nM in data set [2]; less than 1 nM in data set [3]; more than 50 nM in data set [4]. Moreover, the solubility at 2 h in data set [5] was less than 10 µM.

As to `Cc1ccc(Nc2nc(-c3nccn3C)nn3cc(-c4ccn(C)n4)c(C)c23)nc1` [Compound 226, 5-Methyl-2-(1-methyl-1H-imidazol-2-yl)-6-(1-methyl-1H-pyrazol-3-yl)-N-(5-methylpyridin-2-yl)pyrrolo[2,1-f][1,2,4]triazin-4-amine], the solubility at 2 h in data set [5] was less than 10 µM.

On to `COc1cc(Nc2nc(-c3nccn3C)nn3cc(-c4ccn(C)n4)c(C)c23)ncc1C1CC1` [Compound 238, N-(5-Cyclopropyl-4-methoxypyridin-2-yl)-5-methyl-2-(1-methyl-1H-imidazol-2-yl)-6-(1-methyl-1H-pyrazol-3-yl)pyrrolo[2,1-f][1,2,4]triazin-4-amine], for which the IC50 with A375 (wild type Kras) is more than 50 nM; in data set [1], 10 to 50 nM; in data set [2], more than 50 nM; in data set [3], less than 1 nM; in data set [4] it was more than 50 nM. In addition, the solubility at 2 h in data set [5] is less than 10 µM.

`Cc1c(-c2ccn(C)n2)cn2nc(-c3nccn3C)nc(Nc3cc(N4CCOCC4)ccn3)c12` [Compound 222, 5-Methyl-2-(1-methyl-1H-imidazol-2-yl)-6-(1-methyl-1H-pyrazol-3-yl)-N-(4-morpholinopyridin-2-yl)pyrrolo[2,1-f][1,2,4]triazin-4-amine]: the concentration for half-maximal inhibition (IC50) is more than 50 nM with A375 (wild type Kras); 10 to 50 nM in data set [1]; more than 50 nM in data set [2]; less than 1 nM in data set [3]; 10 to 50 nM in data set [4]. Also, the solubility at 2 h in data set [5] fell in the range of 10 to 30 µM.

`COc1ccc(Nc2nc(-c3nccn3C)nn3cc(-c4ccn(C)n4)c(C)c23)nc1` [Compound 224, N-(5-Methoxypyridin-2-yl)-5-methyl-2-(1-methyl-1H-imidazol-2-yl)-6-(1-methyl-1H-pyrazol-3-yl)pyrrolo[2,1-f][1,2,4]triazin-4-amine]: in data set [5], the solubility at 2 h is less than 10 µM.
